How the values were obtained:
Assay in all cases: relative viability (nuclei count vs DMSO), 5 days (fraction); higher = more cells survive
CX-5461 + Phenformin = compound: Cc1cnc(CNC(=O)c2c(=O)c3ccc(N4CCCN(C)CC4)nc3n3c2sc2ccccc23)cn1 [CX-5461] + N=C(N)NC(=N)NCCc1ccccc1 [Phenformin] (partner 250 µM)
Summary of the method: (§1)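 The day after seeding in 1536-well plates, lung cancer cell lines were treated by pin tool with a single drug, or with a fixed anchor-drug dose together with five library-drug doses (not always all listed) in √10 steps. After 5 days, a combined fix-and-stain solution (final 0.05% Triton X-100, 1% formaldehyde, 1 ug/ml Hoechst) was added. Nuclei counted on 4× images gave relative viability as treated counts over vehicle counts, reported as the median of duplicate plates.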

CX-5461 + Linsitinib = compound: Cc1cnc(CNC(=O)c2c(=O)c3ccc(N4CCCN(C)CC4)nc3n3c2sc2ccccc23)cn1 [CX-5461] + C[C@]1(O)C[C@@H](c2nc(-c3ccc4ccc(-c5ccccc5)nc4c3)c3c(N)nccn32)C1 [Linsitinib] (partner 1 µM)
Summary of the method: as §1

IMD-0354 + Alpelisib = compound: O=C(Nc1cc(C(F)(F)F)cc(C(F)(F)F)c1)c1cc(Cl)ccc1O [IMD-0354] + Cc1nc(NC(=O)N2CCC[C@H]2C(N)=O)sc1-c1ccnc(C(C)(C)C(F)(F)F)c1 [Alpelisib] (partner 2 µM)
Summary of the method: as §1

CX-5461 + Vorinostat = compound: Cc1cnc(CNC(=O)c2c(=O)c3ccc(N4CCCN(C)CC4)nc3n3c2sc2ccccc23)cn1 [CX-5461] + O=C(CCCCCCC(=O)Nc1ccccc1)NO [Vorinostat] (partner 1 µM)
Summary of the method: as §1

UMC-11
relative viability (CX-5461 + Phenformin; first compound 0.01 µM): 0.323
relative viability (CX-5461 + Phenformin; first compound 0.03162 µM): 0.298
relative viability (CX-5461 + Phenformin; first compound 0.1 µM): 0.246
relative viability (CX-5461 + Phenformin; first compound 0.3162 µM): 0.293
relative viability (CX-5461 + Phenformin; first compound 1 µM): 0.217
relative viability (CX-5461 + Linsitinib; first compound 0.01 µM): 0.907
relative viability (CX-5461 + Linsitinib; first compound 0.03162 µM): 1.07
relative viability (CX-5461 + Linsitinib; first compound 0.1 µM): 1.02
relative viability (CX-5461 + Linsitinib; first compound 0.3162 µM): 0.92
relative viability (CX-5461 + Linsitinib; first compound 1 µM): 0.807
relative viability (IMD-0354 + Alpelisib; first compound 0.04 µM): 0.945
relative viability (IMD-0354 + Alpelisib; first compound 0.1265 µM): 0.973
relative viability (IMD-0354 + Alpelisib; first compound 0.4 µM): 0.598
relative viability (IMD-0354 + Alpelisib; first compound 1.265 µM): 0.235
relative viability (IMD-0354 + Alpelisib; first compound 4 µM): 0.281
relative viability (CX-5461 + Vorinostat; first compound 0.01 µM): 0.338
relative viability (CX-5461 + Vorinostat; first compound 0.03162 µM): 0.35
relative viability (CX-5461 + Vorinostat; first compound 0.1 µM): 0.384
relative viability (CX-5461 + Vorinostat; first compound 0.3162 µM): 0.398
relative viability (CX-5461 + Vorinostat; first compound 1 µM): 0.202

Source: the supplement of paper PMC10307832
